Data on four compounds can be found in patent US4105785A, “Anti-depressive 2-methyl-4-[(3'-dimethylamino)propylidine]-9,10-dihydrobenzo [4,5]cyclohepta[1,2b]furan compounds” (priority 1976, dated 1978).

The test system of data set [1] is stereotypies induced by amphetamine. The data set can be described thus: Potentialization of stereotypies induced by amphetamine in the rat. Type of data set: in vivo. The note with it: D-amphetamine 4 mg/kg IP. How it is done:
(4) Potentialization of stereotypies induced by amphetamine in the rat.
The administration of D-amphetamine to the rat (4 mg/kg IP) results in stereotyped behaviour which can be potentialized or antogonized by various products.
The values given in table I show the percentage of potentialization. [Lapin I. P. and Schelkunov E. L. (1963) Second International Pharmacological Meeting 1, 205 Pergamon Press].

The subject of data set [2] is reserpine-induced hypothermia. Nature of the data set: Antagonism to reserpine-induced hypothermia. It counts as in vivo. The note with it: mouse; for HYPOTHERMIA (Reserpine), maximal rise in temperature: reserpine 1 mg/kg IV. Here is the method:
(2) Antagonism to reserpine-induced hypothermia Administration of reserpine to the mouse (1 mg/kg IV) results in hypothermia which may be antagonized by certain anti-depressants. The values given in table I correspond, for the doses given, to the maximal rise in temperature. [Boissier et al., Therapie 1966, XXI, 109-117]

In data set [3] the test system is catalepsy induced by prochlorperazine. The data set can be described thus: antagonism to catalepsy induced by prochlorperazine in the rat. Type of data set: in vivo. The text has this:
(3) antagonism to catalepsy induced by prochlorperazine in the rat. Injection of prochlorperazine in the rat induces a cataleptic state which is more or less inhibited by antidepressants. The values given in table I show percentages of inhibition. [Boissier J. R. and Simon P., Therapie (1963), 18, 1257-77]

Data set [4] is described as follows: acute toxicity by the oral way in the mouse. The note with it: in vivo; for LD50: PO; for mortality: 600 mg/kg PO, read-out: acute toxicity, deaths. Here is the method:
(1) acute toxicity by the oral way in the mouse
This was evaluated in the mouse by the method of Behrens and Karber [Arch. Exp. Path. Pharm. 177, 379 (1935)]

In data set [5] the test system is symptoms of trembling induced by oxotremorine. The data set can be described thus: Antioxotremoric action in the mouse. It counts as in vivo. The note with it: 100 mg/kg PO, oxotremorine 2 mg/kg IP.
Data set [6] deals with heat stimulus (hot plate). The data set can be described thus: Analgesic activity, hot plate method. It counts as in vivo. The note with it: mouse; for ED50: PO, 50% of animals exposed to heat stimulus longer than 5 seconds, read-out: ANALGESIA ED 50. Here is the method:
(7) Analgesic activity This was assessed on the mouse by the hot plate method. […] [Eddy N. B. and Leimbach D. J., Pharmacol. Exp. Ther., 107, 385-393 (1953)]
On the technique in general: Hot-plate and tail-flick tests time the reaction to a heat stimulus.

Data set [7] concerns spontaneous motility. The data set can be described thus: Spontaneous motility in the mouse. It counts as in vivo. The note with it: 1 hour after administration, 10 minutes. How it is done: (6) Spontaneous motility in the mouse One hour after the administration of the product to be studied, the animals are placed by groups of two in a circular corridor swept by beams of infrared light making it possible to count their movements from one place to another. The number of movements from one place to another is counted for 10 minutes and compared with the score obtained by a control group.

As a reminder, the LD50 is the dose expected to kill half of the subjects tested. As for `CN(C)CCC=C1c2ccccc2CCc2ccccc21` [AMITRIPTYLINE, reference compound], the “STEREOTYPIES (Amphetamine), percentage of potentialization” value (“STEREOTYPIES (Amphetamine), percentage” for short) in data set [1] (20 mg/kg PO) is recorded as “+65%”. The “HYPOTHERMIA (Reserpine), maximal rise in temperature” value (from here on “HYPOTHERMIA (Reserpine)”) in data set [2] (50 mg/kg PO) is “+2.5 °C”. In addition, in data set [3] (20 mg/kg IP), the “CATALEPSY (Prochlorperazine), percentage of inhibition” value (“CATALEPSY … percentage of inhibition” below) is on record as -33,3%. In data set [4], this compound registered a 50% lethal dose (LD50) of 250 mg/kg. Moreover, in data set [5], the “ANTI-OXOTREMORIC ACTION, percentage of inhibition of trembling symptoms” value is listed as -100%. For the same compound, the ED50 in data set [6] was 16 mg/kg. In addition, the SPONTANEOUS MOTILITY, percentage of decrease in number of movements in data set [7] (80 mg/kg PO) was determined as 80%.

`Cc1ccc2c(c1)CCc1oc(C)cc1C2=CCCN(C)C` [compound no. 1, dimethyl-2,7 [(dimethylamino-3')propylidene]-4 dihydro-9,10 benzo-[4,5] cyclohepta [1,2-b] furan]: in data set [1] (5 mg/kg IP), the “STEREOTYPIES (Amphetamine), percentage” value is on record as “+105%”. Moreover, the “HYPOTHERMIA (Reserpine)” value in data set [2] (12.5 mg/kg PO) was “+1 °C”. Also, the “CATALEPSY … percentage of inhibition” value in data set [3] (20 mg/kg IP) is given as -26.1%. The mortality in data set [4] worked out at 10%. Further, the “ANTI-OXOTREMORIC ACTION, percentage of inhibition of trembling symptoms” value in data set [5] is listed as -35%. Further, the ED50 in data set [6] was 48 mg/kg. The compound further came in with an SPONTANEOUS MOTILITY, percentage of decrease in number of movements in data set [7] (100 mg/kg PO) of 95.3%.

Turning to `Cc1ccc2c(c1)C(=CCCN(C)C)c1cc(C)oc1CC2` [compound no. 2, dimethyl-2,6 [(dimethylamino-3')]-propylidene-4 dihydro-9,10 benzo [4,5] cyclohepta [1,2-b] furan], in data set [1] (5 mg/kg IP), the “STEREOTYPIES (Amphetamine), percentage” value was “+141%”. Besides, the “HYPOTHERMIA (Reserpine)” value in data set [2] (25 mg/kg PO) is “+0.6 °C”. In addition, the “CATALEPSY … percentage of inhibition” value in data set [3] (20 mg/kg IP) was -44.4%. In data set [4], the mortality was 10%. Also, in data set [5], the “ANTI-OXOTREMORIC ACTION, percentage of inhibition of trembling symptoms” value is -30%. Besides, in data set [6], the ED50 stood at 47 mg/kg. The compound also showed an SPONTANEOUS MOTILITY, percentage of decrease in number of movements in data set [7] (100 mg/kg PO) of 84.4%.

As to `Cc1cc2c(o1)CCc1ccccc1C2=CCCN(C)C` [compound no. 3, methyl-2 [(dimethylamino-3')-propylidene]-4 dihydro-9,10 benzo-[4,5] cyclohepta [1,2-b] furan], the “STEREOTYPIES (Amphetamine), percentage” value in data set [1] (5 mg/kg IP) is recorded as “+9,2%”. Further, the “action on reserpine-induced hypothermy (in words)” value in data set [2] is “significant action”. The “HYPOTHERMIA (Reserpine)” value in data set [2] (50 mg/kg PO) is “+3 °C”. Further, the “CATALEPSY … percentage of inhibition” value in data set [3] (40 mg/kg IP) is recorded as -33.3%. The compound also returned an LD50 in data set [4] of 300 mg/kg. Besides, the “ANTI-OXOTREMORIC ACTION, percentage of inhibition of trembling symptoms” value in data set [5] is recorded as -75%. Besides, the “ANALGESIA (result in words)” value in data set [6] was “non specific”. In addition, the SPONTANEOUS MOTILITY, percentage of decrease in number of movements in data set [7] (100 mg/kg PO) was determined as 84%.
